The source of these data is patent publication US11351138B2, “Composition for use in the treatment of epilepsy” (VITAFLO INTERNATIONAL LTD, priority 2017, dated 2022).

“Also recorded” adds a separate entry of the source.

For data set [1] the following is noted: cited from earlier work.
Data set [2] relates to SH-SY5Y cells. Type of data set: cell-based. The settings on record: human, 6 h, 250 μM. On the procedure:
SH-SY5Y cells were utilised between passages 20-24 for all experimental procedures. Cells were cultured in 1:1 Dulbecco's Modified Eagle's Medium (DMEM)/F12 media, containing 17.5 mM glucose and supplemented with 100 ml/L heat-inactivated foetal bovine serum (FBS) and 10 ml/L 200 mM L-glutamine. All cells were maintained in a humidified atmosphere at 37° C. and 5% CO2. Cells were sub-cultured by washing with 10 ml/flask Mg^2+1c a ^2+-free Dulbecco's phosphate-buffered saline (DPBS), lifted with 2 ml 0.25% trypsin-EDTA and suspended in 8 ml culture medium to inactivate the trypsin. The cell suspension was transferred to a falcon tube and centrifuged for 4 minutes at 500×g. The supernatant was removed and cells suspended in a known volume of fresh culture medium. Cells were counted using the Trypan Blue exclusion test for viability. A known volume of the cell suspension was mixed 1:1 with 0.4% Trypan Blue solution and counted with a Bio-Rad TC20™ Automated Cell Counter (Hemel Hempstead, UK). […]
Samples were thawed at room temperature and 100 μl 1M hydrochloric acid was injected through the septum into each vial to release CO2 from the media. […] Samples were then analysed on a GasBench II coupled to a Thermo Delta-XP isotope-ratio mass spectrometer. […]

The subject of data set [3] is SH-SY5Y cells. Briefly: CPT1 inhibition assay (etomoxir), oxidation rates in SH-SY5Y cells. Format: cell-based. To be noted: for Oxidation rate +Etomoxir / Oxidation rate −Etomoxir: 250 μM substrate, mean±SEM; for Oxidation rate +Etomoxir: 50 μM etomoxir; for Oxidation rate −Etomoxir: without etomoxir. On the procedure: C16:BSA complex (5:1 molar ratio fatty acid:BSA). […] Both solutions were aliquoted and stored at −20° C. until further use.
A stock solution of 50 mM etomoxir was prepared in sterile cell culture grade water and stored in aliquots at −20° C. On day 5 of culture, growth medium was replaced with 2 ml DMEM formula containing 3 mM D-glucose and 10% FBS. Cells were incubated with or without the presence of 50 μM etomoxir, for 20 h at 37° C. and 5% CO2. […] C8 or [U-^13C] C16:BSA, with 50 μM etomoxir also added to previously exposed cells. Wells were then sealed with heavy mineral oil, with cells incubated and media sampled as previously described.
Samples were thawed at room temperature and 100 μl 1M hydrochloric acid was injected through the septum into each vial to release CO2 from the media. Vials were centrifuged for 30 seconds at 500×g. Samples were then analysed on a GasBench II coupled to a Thermo Delta-XP isotope-ratio mass spectrometer.

The target in data set [4] is T1, GluA2/3 AMPA receptors (Homo sapiens, UniProt P42262+P42263).
T1 construct: expressed in transfected cells; host or cells: Xenopus laevis oocytes injected with in vitro transcribed cRNA (GluA2 and GluA3, nominal 1:1)
The settings on record: Chang et al., Brain 2016; cited from earlier work.

The conditions of data set [5]: clinically relevant concentrations, in vitro and in vivo; cited from earlier work.
The conditions of data set [6]: animal models; cited from earlier work.
The target in data set [7] is T1, GluA2/3 AMPA receptors. Briefly: AMPA receptor (GluA2/3) currents in Xenopus oocytes, two-electrode voltage clamp. Type of data set: cell-based. To be noted: GluA2/3 in oocytes, 100 uM glutamate, total medium chain fatty acid content 1 mM. As to the method: The AMPA receptor (flip isoform) cDNAs inserted in a SP6 polymerase expression vector (pSP6T) were a gift from Prof Ralf Schoepfer (NPP, UCL). RNA was transcribed in vitro from Miu I linearised transcripts using the SP6 Promega RiboMax RNA synthesis kit (Madison, Wis.) according to manufacturers protocols except for the addition of 0.75 mM capping nucleotide m7G(5′)ppp(5′)G (Promega, Madison, Wis.) and 1.6 mM GTP. cRNA concentrations and integrity were estimated by the intensity of fluorescence bands in RNA denaturating gels. AMPA receptor cRNAs were mixed in a nominal 1:1 ratio and approximately 5 ng was injected per oocyte.
Xenopus laevis oocytes were purchased from the European Xenopus Resource Centre, University of Portsmouth. Stage V to VI oocytes were mechanically dissected and then subjected to gentle shaking for approximately 30-50 min at room temperature with modified Barth's solution (in mM): NaCl 88, KCl 1, NaHCO32.4, MgCb 0.82, CaCl2) 0.77, Tris-Cl 15, adjusted to pH 7.4 with NaOH (Sigma-Aldrich, UK), supplemented with 50 IU/ml penicillin and 50 μg/ml streptomycin (Invitrogen, UK) and 50 μg/ml tetracycline (Sigma-Aldrich, UK) and 1% collagenase (type 1A). […]

Data set [8] has as its system SH-SY5Y cells. Briefly: C10 and C8 co-incubation, C10 oxidation in SH-SY5Y cells. Format: cell-based. The settings on record: 250 μM [1-13C]C10 plus 62.5 μM unlabelled C8. On the procedure:
The effects of co-incubating C10 and C8 on C10 oxidation in SH-SY5Y cells were also explored. Additional stock solutions of 25 mM C8 and 100 mM [1-^13C]C10 were prepared in DMSO, sterile-filtered and stored in aliquots at −20° C. Cells were cultured and incubated for 20 h in 10% FBS-supplemented DMEM media containing 3 mM D-glucose, as previously described. Media was then removed and cells washed. Media was then replaced with 3 ml DMEM containing either 3 mM [U-^13C]glucose and vehicle control DMSO, or 3 mM unlabelled D-glucose. In each D-glucose-supplemented well, cells were treated with either a final concentration of 250 μM [1-^13C] C10, or 250 μM [1-^13C]C10 plus 62.5 μM C8, at a fixed total volume. Wells were then sealed with heavy mineral oil, cells incubated and media sampled as previously outlined.
Samples were thawed at room temperature and 100 μl 1M hydrochloric acid was injected through the septum into each vial to release CO2 from the media. Vials were centrifuged for 30 seconds at 500×g. Samples were then analysed on a GasBench II coupled to a Thermo Delta-XP isotope-ratio mass spectrometer. Ten repeat injections were carried out per sample, with d^13C/^12C ratios measured against Vienna Pee Dee Belemnite (VPDB) using a calibrated CO2 reference gas. ^13CO2/^12CO2 ratios were converted to mole percent excess using absolute molar ratio of ^13C to ^12C (0.0111796) in VPDB. […]

In data set [9] the test system is SH-SY5Y cells. Description: Cell viability, Trypan Blue exclusion test. Format: cell-based. The settings on record: 50 μM etomoxir, 20 h + 6 h; data not shown. On the procedure:
Cells were incubated for 20 h at 37° C. and 5% CO2 with 50 μM etomoxir in DMEM media supplemented with 10% FBS, and then a further 6 h at 37° C. with 50 μM etomoxir in DMEM media without FBS. Cells were then lifted from wells with 1 ml 0.25% trypsin-EDTA, suspended in 4 ml culture medium and centrifuged for 4 minutes at 500×g. Supernatant was removed and cells suspended in 1 ml of fresh culture medium. Viability of cells was then tested using the Trypan Blue exclusion test.

T1 sequence (P42262 25-883 isoform P42262-2 limits assumed): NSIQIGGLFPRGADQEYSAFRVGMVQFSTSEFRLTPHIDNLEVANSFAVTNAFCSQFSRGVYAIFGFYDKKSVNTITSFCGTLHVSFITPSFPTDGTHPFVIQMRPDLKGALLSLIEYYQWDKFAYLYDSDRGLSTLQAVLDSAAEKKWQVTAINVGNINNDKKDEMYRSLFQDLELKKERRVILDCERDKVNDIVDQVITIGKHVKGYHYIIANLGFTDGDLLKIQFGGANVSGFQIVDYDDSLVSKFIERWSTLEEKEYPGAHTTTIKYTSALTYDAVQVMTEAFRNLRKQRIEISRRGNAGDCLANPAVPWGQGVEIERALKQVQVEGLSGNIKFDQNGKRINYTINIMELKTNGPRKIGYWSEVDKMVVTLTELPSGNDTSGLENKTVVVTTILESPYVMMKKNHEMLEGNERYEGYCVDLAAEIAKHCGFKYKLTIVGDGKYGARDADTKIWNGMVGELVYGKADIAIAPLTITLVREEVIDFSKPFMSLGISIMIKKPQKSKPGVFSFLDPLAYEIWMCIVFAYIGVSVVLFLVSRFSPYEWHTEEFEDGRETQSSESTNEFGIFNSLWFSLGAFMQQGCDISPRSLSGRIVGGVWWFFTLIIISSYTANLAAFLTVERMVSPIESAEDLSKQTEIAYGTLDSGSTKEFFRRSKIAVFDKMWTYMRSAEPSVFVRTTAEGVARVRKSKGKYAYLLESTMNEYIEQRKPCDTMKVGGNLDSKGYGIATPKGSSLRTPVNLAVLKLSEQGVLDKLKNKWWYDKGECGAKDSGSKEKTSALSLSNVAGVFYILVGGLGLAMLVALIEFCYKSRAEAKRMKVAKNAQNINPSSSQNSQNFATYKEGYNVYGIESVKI
T1 sequence (P42263 29-894 isoform P42263-2 limits assumed): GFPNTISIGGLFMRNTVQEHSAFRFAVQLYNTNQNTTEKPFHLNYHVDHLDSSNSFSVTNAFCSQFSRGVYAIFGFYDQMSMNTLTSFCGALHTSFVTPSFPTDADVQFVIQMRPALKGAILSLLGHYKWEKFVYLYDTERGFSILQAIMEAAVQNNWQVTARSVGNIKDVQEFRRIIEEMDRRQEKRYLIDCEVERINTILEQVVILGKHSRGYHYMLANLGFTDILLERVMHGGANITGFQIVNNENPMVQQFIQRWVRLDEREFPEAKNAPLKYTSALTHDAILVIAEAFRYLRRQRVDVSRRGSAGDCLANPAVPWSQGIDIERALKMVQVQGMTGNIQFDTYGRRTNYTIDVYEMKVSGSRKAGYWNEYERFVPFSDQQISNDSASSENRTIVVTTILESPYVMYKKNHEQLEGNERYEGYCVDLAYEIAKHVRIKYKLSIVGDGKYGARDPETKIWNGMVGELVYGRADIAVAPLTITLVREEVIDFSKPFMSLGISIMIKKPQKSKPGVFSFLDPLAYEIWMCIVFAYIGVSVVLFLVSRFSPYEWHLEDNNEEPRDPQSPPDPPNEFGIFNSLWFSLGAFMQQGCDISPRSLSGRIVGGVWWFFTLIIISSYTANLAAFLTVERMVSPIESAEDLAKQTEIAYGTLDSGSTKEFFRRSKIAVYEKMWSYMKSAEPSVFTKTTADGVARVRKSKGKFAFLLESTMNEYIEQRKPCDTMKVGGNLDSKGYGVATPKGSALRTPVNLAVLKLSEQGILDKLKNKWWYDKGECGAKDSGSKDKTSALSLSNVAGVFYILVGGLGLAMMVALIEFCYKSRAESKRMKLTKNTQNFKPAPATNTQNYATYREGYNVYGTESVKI

Turning to `CCCCCCCCCC(=O)O` [decanoic acid, Decanoic acid], in [1], the “concentration in peripheral blood (average)” value was 157 µM and the “concentration in peripheral blood (range)” value was 87 to 552 µM. In addition, in the data set on SH-SY5Y cells [2], the “C10 oxidation lower than that of C8 by” value is “approximately 80%”. For the same compound, the “reduction of oxidation in the presence of etomoxir” value (“reduction of oxidation” for short) in the data set on SH-SY5Y cells [3] (human, 6 h, 250 μM) is on record as 95%. Moreover, at GluA2/3 AMPA receptors [4], the “effect on AMPA receptors / AMPA receptor currents” value is “inhibits AMPA receptors”. Further, in data set [5], the anti-seizure effects entry is “acute antiseizure effects; also recorded: has anti-seizure effects”. In addition, the “ratio in blood plasma to brain” value in [6] is reported as “around 0.7”. Also, the “inhibition of AMPA receptor currents by decanoic acid:octanoic acid ratios” value at GluA2/3 AMPA receptors [7] is “no increase in AMPA receptor inhibition”. Moreover, in the data set with SH-SY5Y cells [8], the “impairment of oxidation rate of C10 by C8 addition” value is reported as 29%.

For `CCOC(=O)[C@@]1(CCCCCCOc2ccc(Cl)cc2)CO1` [etomoxir], the “effect on viability of SH-SY5Y cells” value with SH-SY5Y cells [9] is reported as “no effect on viability”.

For `CCCCCCCC(=O)O` [octanoic acid, Octanoic acid], in data set [1], the “concentration in peripheral blood (average)” value is listed as “around 306 μM” and the “concentration in peripheral blood (range)” value was 104 to 859 µM. In addition, the “reduction of oxidation” value in the data set with SH-SY5Y cells [3] (human, 6 h, 250 μM) worked out at 34%. Besides, at GluA2/3 AMPA receptors [4], the “effect on AMPA receptors / AMPA receptor currents” value is “no effect on AMPA receptor currents”. Also, the anti-seizure effects result in [5] is “not”.

In the case of `CCCCCCC[13C](=O)O` [[1-^13C]C8, [1^13C]octanoic acid], in the data set on SH-SY5Y cells [3], the “Oxidation rate +Etomoxir” value stood at 0.75 ± 0.06 nmol/h and the “Oxidation rate −Etomoxir” value turned out to be 1.14 ± 0.11 nmol/h.

On to `[13CH3][13CH2][13CH2][13CH2][13CH2][13CH2][13CH2][13CH2][13CH2][13CH2][13CH2][13CH2][13CH2][13CH2][13CH2][13C](=O)O` [[U-^13C]C16, [U-^13C]palmitic acid, reference compound], for which, in the data set with SH-SY5Y cells [3] (50 μM etomoxir (CPT1 inhibition)), the “reduction of oxidation” value was found to be 99%. In addition, in the data set on SH-SY5Y cells [3], the “Oxidation rate +Etomoxir” value stood at 0.002 ± 0.003 nmol/h and the “Oxidation rate −Etomoxir” value came out at 0.22 ± 0.05 nmol/h.
